# Laboratory results taken from patent publication US20240327412A1, “FACTOR XIIA INHIBITORS” (KALVISTA PHARMACEUTICALS LIMITED, priority 2021, published 2024).
# Experiments:
# Format in all cases: biochemical
# [1] = molecular target: T1, Human Factor XIIa (Homo sapiens, UniProt P00748); experiment: Determination of FXIIa inhibition (fluorogenic substrate H-DPro-Phe-Arg-AFC, IC50 assay); conditions: substrate at Km concentration, 25° C.; category scale; read-out: Human FXII IC50 (nm)
# T1 construct: Proteolytic cleavage of FXII to heavy and light chains of FXIIa dramatically increases catalytic activity; purchased Enzyme Research Laboratories
# T1 sequence (P00748 373-615 limits assumed): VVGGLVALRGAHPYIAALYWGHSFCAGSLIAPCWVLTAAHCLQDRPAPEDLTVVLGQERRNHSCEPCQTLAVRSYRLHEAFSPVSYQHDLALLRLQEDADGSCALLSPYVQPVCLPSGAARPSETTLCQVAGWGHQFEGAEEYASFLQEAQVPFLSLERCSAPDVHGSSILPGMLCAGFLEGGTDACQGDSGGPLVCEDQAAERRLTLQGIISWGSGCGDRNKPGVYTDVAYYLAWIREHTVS
# T1 sequence (P00748 20-372 partner limits assumed): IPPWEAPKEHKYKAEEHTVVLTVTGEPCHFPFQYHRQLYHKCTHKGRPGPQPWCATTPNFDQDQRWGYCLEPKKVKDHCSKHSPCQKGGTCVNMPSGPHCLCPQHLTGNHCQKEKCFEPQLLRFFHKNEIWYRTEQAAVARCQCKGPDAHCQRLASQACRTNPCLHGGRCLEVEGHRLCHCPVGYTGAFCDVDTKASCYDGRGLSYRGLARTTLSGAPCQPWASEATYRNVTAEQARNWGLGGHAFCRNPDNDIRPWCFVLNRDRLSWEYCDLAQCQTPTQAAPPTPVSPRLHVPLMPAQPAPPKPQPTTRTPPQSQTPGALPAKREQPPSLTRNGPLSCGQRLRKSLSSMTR
# Method in brief: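 Human FXIIa incubated at 25° C. with fluorogenic H-DPro-Phe-Arg-AFC at its Km concentration plus varying compound levels. Linear fluorescence increase over 5 min taken as % activity; IC50 is concentration halving uninhibited activity.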
# [2] = molecular target: T2, Plasma Kallikrein (Homo sapiens, UniProt P03952); experiment: Related protease inhibition: Plasma Kallikrein (fluorogenic substrate at Km); conditions: class symbols per Table 18, read-out: IC50 (human PKal)
# T2 construct: FXIIa converts plasma prekallikrein (PK) to plasma kallikrein (PKa)
# Method in brief: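 Human enzymes; fluorogenic substrate at Km for thrombin, trypsin and plasma kallikrein, but fixed at 100 μM for FXIa. Fluorescence release followed over 5 min at 25 °C, linear rate expressed as % of uninhibited activity; IC50 = inhibitor concentration giving 50% inhibition.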
# [3] = molecular target: KLK1 (Homo sapiens, UniProt P06870); experiment: Related protease inhibition: KLK1 (fluorogenic substrate at Km); conditions: class symbols per Table 18
# Method: (§1) In vitro inhibition of related proteases was determined using an IC50 assay based on standard literature methods (see e.g. Shori et al., Biochem. Pharmacol., 1992, 43, 1209; Bouckaert et al., European Journal of Medicinal Chemistry 110 (2016) 181). Human serine protease enzyme Plasma Kallikrein, KLK1, FXa, Plasmin, Thrombin and Trypsin were assayed for enzymatic activity using an appropriate fluorogenic substrate at Km concentration, FXIa at fixed substrate concentration of 100 μM and various concentrations of the test compound. Protease activity was measured by monitoring the accumulation of liberated fluorescence from the substrate over 5 min at 25° C. The linear rate of fluorescence increase per minute was expressed as percentage (%) activity. IC50 values were calculated as the concentration of inhibitor giving 50% inhibition of the uninhibited enzyme activity (100%).
# [4] = molecular target: FXa (Homo sapiens, UniProt P00742); experiment: Related protease inhibition: FXa (fluorogenic substrate at Km); conditions: class symbols per Table 18
# Method: as §1
# T2 sequence (P03952 391-638 limits assumed): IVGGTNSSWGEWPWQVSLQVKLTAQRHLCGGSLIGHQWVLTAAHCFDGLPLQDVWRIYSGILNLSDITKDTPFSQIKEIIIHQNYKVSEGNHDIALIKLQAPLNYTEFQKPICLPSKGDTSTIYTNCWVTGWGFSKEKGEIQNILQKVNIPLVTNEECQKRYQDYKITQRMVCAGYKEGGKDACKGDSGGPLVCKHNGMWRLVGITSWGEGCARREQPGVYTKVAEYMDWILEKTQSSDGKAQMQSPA
# T2 sequence (P03952 20-390 partner limits assumed): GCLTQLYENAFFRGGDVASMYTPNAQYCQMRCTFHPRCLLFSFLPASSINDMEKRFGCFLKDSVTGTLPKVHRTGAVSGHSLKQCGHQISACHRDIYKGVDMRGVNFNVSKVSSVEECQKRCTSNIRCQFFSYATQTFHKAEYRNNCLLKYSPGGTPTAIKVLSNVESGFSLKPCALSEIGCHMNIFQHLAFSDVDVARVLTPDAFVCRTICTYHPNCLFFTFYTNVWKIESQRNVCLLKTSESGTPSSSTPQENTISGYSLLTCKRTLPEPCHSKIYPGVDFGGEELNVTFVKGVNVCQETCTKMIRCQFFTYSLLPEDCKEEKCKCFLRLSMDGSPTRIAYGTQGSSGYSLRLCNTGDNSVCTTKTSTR
# Chain of FXa (P00742 235-488 limits assumed): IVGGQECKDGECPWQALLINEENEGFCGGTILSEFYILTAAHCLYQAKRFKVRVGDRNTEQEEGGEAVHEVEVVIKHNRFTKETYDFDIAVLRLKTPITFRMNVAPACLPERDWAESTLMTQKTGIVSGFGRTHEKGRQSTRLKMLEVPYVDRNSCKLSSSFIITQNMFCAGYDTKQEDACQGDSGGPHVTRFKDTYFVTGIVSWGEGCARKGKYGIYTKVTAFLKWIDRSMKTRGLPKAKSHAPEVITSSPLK
# Chain of FXa (P00742 41-179 partner limits assumed): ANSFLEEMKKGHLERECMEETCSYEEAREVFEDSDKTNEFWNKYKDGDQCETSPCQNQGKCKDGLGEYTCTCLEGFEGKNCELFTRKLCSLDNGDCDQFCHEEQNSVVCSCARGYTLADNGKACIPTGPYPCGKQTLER
# Chain of KLK1 (P06870 25-262): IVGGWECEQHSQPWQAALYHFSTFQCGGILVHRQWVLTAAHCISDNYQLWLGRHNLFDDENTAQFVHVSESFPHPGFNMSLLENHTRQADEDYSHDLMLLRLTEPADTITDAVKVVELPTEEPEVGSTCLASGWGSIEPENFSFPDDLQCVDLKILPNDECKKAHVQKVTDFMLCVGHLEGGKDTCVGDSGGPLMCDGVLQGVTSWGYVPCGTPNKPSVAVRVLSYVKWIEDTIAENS
Compound,IC50 [1] [µM],IC50 [2] [µM],IC50 [3] [µM],IC50 [4] [µM]
"c1cc(NCC23CC(COc4ccn5ccnc5c4)(C2)C3)c2cc[nH]c2n1 [Example 1009, N-((3-((imidazo[1,2-a]pyridin-7-yloxy)methyl)bicyclo[1.1.1]pentan-1-yl)methyl)-1H-pyrrolo[2,3-b]pyridin-4-amine]",10 to 40,> 100,> 100,–
Clc1cc2c(NCC34CC(COc5ccn6ccnc6c5)(C3)C4)ccnc2[nH]1 [Example 1010],0.3 to 1,–,> 40,1 to 3
"Cc1cc(OCC23COC(CNc4cccc5c(N)nccc45)(C2)C3)cn2ccnc12 [Example 6617, N5-((4-(((8-methylimidazo[1,2-a]pyridin-6-yl)oxy)methyl)-2-oxabicyclo[2.1.1]hexan-1-yl)methyl)isoquinoline-1,5-diamine]",0.01 to 0.1,> 40,3 to 10,10 to 40
"Nc1nccc2c(NCC34CC(COc5ccc6ncc(C(F)(F)F)n6c5)(CO3)C4)cccc12 [Example 6627, N5-((4-(((3-(trifluoromethyl)imidazo[1,2-a]pyridin-6-yl)oxy)methyl)-2-oxabicyclo[2.1.1]hexan-1-yl)methyl)isoquinoline-1,5-diamine]",1 to 3,–,3 to 10,–
"CN1Cc2ccc(OCC34COC(CNc5cccc6c(N)nccc56)(C3)C4)cc2C1=O [Example 6628, 6-((1-(((1-aminoisoquinolin-5-yl)amino)methyl)-2-oxabicyclo[2.1.1]hexan-4-yl)methoxy)-2-methylisoindolin-1-one]",0.1 to 0.3,–,3 to 10,–
"Nc1nccc2c(N3CCC4(CC(COc5ccn6ccnc6c5)C4)C3)cccc12 (stereo not drawn) [Example 8807, 5-(cis*-2-((imidazo[1,2-a]pyridin-7-yloxy)methyl)-6-azaspiro[3.4]octan-6-yl)isoquinolin-1-amine]",0.3 to 1,–,10 to 40,–
"Clc1ccc(NCC23CC(COc4ccn5ccnc5c4)(CCO2)C3)cc1 [Example 10918, 4-chloro-N-((5-((imidazo[1,2-a]pyridin-7-yloxy)methyl)-2-oxabicyclo[3.1.1]heptan-1-yl)methyl)aniline]",–,> 40,> 100,> 40
"Clc1cccc(NCC23CC(COc4ccn5ccnc5c4)(CCO2)C3)c1 [Example 10919, 3-chloro-N-((5-((imidazo[1,2-a]pyridin-7-yloxy)methyl)-2-oxabicyclo[3.1.1]heptan-1-yl)methyl)aniline]",–,> 40,> 100,> 40
"Cc1cn2ccnc2cc1OCC12CCOC(CNc3cccc4c(N)nccc34)(C1)C2 [Example 10920, N5-((5-(((6-methylimidazo[1,2-a]pyridin-7-yl)oxy)methyl)-2-oxabicyclo[3.1.1]heptan-1-yl)methyl)isoquinoline-1,5-diamine]",0.1 to 0.3,3 to 10,3 to 10,10 to 40
"Clc1ccc2c(NCC34CC(COc5ccn6ccnc6c5)(CCO3)C4)ccnc2c1 [Example 10921, 7-chloro-N-((5-((imidazo[1,2-a]pyridin-7-yloxy)methyl)-2-oxabicyclo[3.1.1]heptan-1-yl)methyl)quinolin-4-amine]",40 to 100,–,10 to 40,–
"Nc1nccc2c(NCC34CC(COc5cc(Cl)c6nccn6c5)(CCO3)C4)cccc12 [Example 10924, N5-((5-(((8-chloroimidazo[1,2-a]pyridin-6-yl)oxy)methyl)-2-oxabicyclo[3.1.1]heptan-1-yl)methyl)isoquinoline-1,5-diamine]",0.1 to 0.3,–,3 to 10,–
"Cc1cc(OCC23CCOC(CNc4cccc5c(N)nccc45)(C2)C3)cc2nccn12 [Example 10925, N5-((5-(((5-methylimidazo[1,2-a]pyridin-7-yl)oxy)methyl)-2-oxabicyclo[3.1.1]heptan-1-yl)methyl)isoquinoline-1,5-diamine]",0.01 to 0.1,–,3 to 10,–
"Nc1nccc2c(NCC34CCCC(COc5ccc6nccn6c5)(C3)C4)cccc12 [Example 10942, N5-((5-((imidazo[1,2-a]pyridin-6-yloxy)methyl)bicyclo[3.1.1]heptan-1-yl)methyl)isoquinoline-1,5-diamine]",0.1 to 0.3,–,3 to 10,> 40
"Cn1ccc(OCC23CNC(CNc4cccc5c(N)nccc45)(C2)C3)cc1=O [Example 12007, 4-((1-(((1-aminoisoquinolin-5-yl)amino)methyl)-2-azabicyclo[2.1.1]hexan-4-yl)methoxy)-1-methylpyridin-2(1H)-one]",0.01 to 0.1,> 4,10 to 40,> 40

# Continued, values first:
IC50 [1] [µM],IC50 [2] [µM],IC50 [3] [µM],IC50 [4] [µM],Compound
0.1 to 0.3,> 4,1 to 3,> 40,"CN1Cc2ccc(OCC34CC(CNc5cccc6c(N)nccc56)(CO3)C4)cc2C1=O [Example 2211, 6-((4-(((1-aminoisoquinolin-5-yl)amino)methyl)-2-oxabicyclo[2.1.1]hexan-1-yl)methoxy)-2-methylisoindolin-1-one]"
0.3 to 1,–,3 to 10,10 to 40,"Nc1nccc2c(NCC34CC(COc5ccn6cc(C(F)F)nc6c5)(CO3)C4)cccc12 [Example 6613, N5-((4-(((2-(difluoromethyl)imidazo[1,2-a]pyridin-7-yl)oxy)methyl)-2-oxabicyclo[2.1.1]hexan-1-yl)methyl)isoquinoline-1,5-diamine]"
0.1 to 0.3,> 4,3 to 10,> 40,"Nc1nccc2c(NCC34CC(COc5ccn6ccnc6n5)(CO3)C4)cccc12 [Example 6614, N5-((4-((imidazo[1,2-a]pyrimidin-7-yloxy)methyl)-2-oxabicyclo[2.1.1]hexan-1-yl)methyl)isoquinoline-1,5-diamine]"
3 to 10,–,3 to 10,> 40,"Nc1nccc2c(NCC34CC(COc5ccc6nc(C(F)(F)F)cn6n5)(CO3)C4)cccc12 [Example 6615, N5-((4-(((2-(trifluoromethyl)imidazo[1,2-b]pyridazin-6-yl)oxy)methyl)-2-oxabicyclo[2.1.1]hexan-1-yl)methyl)isoquinoline-1,5-diamine]"
0.3 to 1,–,3 to 10,> 40,"Nc1nccc2c(NCC34CC(COc5cn6ccnc6cn5)(CO3)C4)cccc12 [Example 6616, N5-((4-((imidazo[1,2-a]pyrazin-6-yloxy)methyl)-2-oxabicyclo[2.1.1]hexan-1-yl)methyl)isoquinoline-1,5-diamine]"
0.3 to 1,–,0.3 to 1,–,"Nc1ncc(Cl)c2cc(NCC34CC(COc5ccn6ccnc6c5)(CCO3)C4)ccc12 [Example 10922, 4-chloro-N6-((5-((imidazo[1,2-a]pyridin-7-yloxy)methyl)-2-oxabicyclo[3.1.1]heptan-1-yl)methyl)isoquinoline-1,6-diamine]"
0.1 to 0.3,–,0.3 to 1,–,"Cc1c(OCC23CCOC(CNc4cccc5c(N)nccc45)(C2)C3)ccn2ccnc12 [Example 10923, N5-((5-(((8-methylimidazo[1,2-a]pyridin-7-yl)oxy)methyl)-2-oxabicyclo[3.1.1]heptan-1-yl)methyl)isoquinoline-1,5-diamine]"
0.01 to 0.1,> 4,1 to 3,> 40,"Cn1ccc(OCC23CN(C(=O)Oc4ccccc4)C(CNc4cccc5c(N)nccc45)(C2)C3)cc1=O [Example 12008, phenyl 1-(((1-aminoisoquinolin-5-yl)amino)methyl)-4-(((1-methyl-2-oxo-1,2-dihydropyridin-4-yl)oxy)methyl)-2-azabicyclo[2.1.1]hexane-2-carboxylate]"
0.1 to 0.3,–,0.01 to 0.1,–,"Cn1ccc(OCC23CN(C(=O)OCc4ccccc4)C(CNc4ccc5c(N)nccc5c4)(C2)C3)cc1=O [Example 12010, benzyl 1-(((1-aminoisoquinolin-6-yl)amino)methyl)-4-(((1-methyl-2-oxo-1,2-dihydropyridin-4-yl)oxy)methyl)-2-azabicyclo[2.1.1]hexane-2-carboxylate]"
